Assay [1] relates to Normal Human Epidermal Melanocytes-Dark Pigment. The assay is described as follows: PGE-2 induced inflammation and melanin synthesis. It counts as cell-based. As to conditions: 30 nM PGE2 stimulated melanocytes; 10 mM (0.12%) niacinamide, proxylane (0.19%); 10 days; FIG. 10.
Method: Normal Human Epidermal Melanocytes-Dark Pigment (Lot 1981687, Passage 3, ThermoFisher, Waltham, MA) were seeded in 6-well plates at a density of 100,000 cells per well. Cells were grown in culture medium supplemented with Gibo Human Melanocyte Growth Supplement-2 (ThermoFisher, Waltham, MA). […] Following the 10 days, cells were trypsinized and the melanin was isolated using NaOH. A standard curve using commercially available melanin was used to calculate the average cellular melanin content using the recorded optical density of the isolated melanin using a microplate reader. Average cellular melanin content was normalized to total protein content.
Assay [2] deals with T1, neutrophil elastase (Homo sapiens, UniProt P08246).
T1 sequence (P08246 30-267): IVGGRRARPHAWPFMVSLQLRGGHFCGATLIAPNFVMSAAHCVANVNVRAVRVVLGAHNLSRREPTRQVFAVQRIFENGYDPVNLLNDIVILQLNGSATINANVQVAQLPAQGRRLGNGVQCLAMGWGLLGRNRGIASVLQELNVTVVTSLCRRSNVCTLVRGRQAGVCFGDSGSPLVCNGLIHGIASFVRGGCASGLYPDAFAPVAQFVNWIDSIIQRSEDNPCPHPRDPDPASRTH
As to conditions: alone and in combination; 37° C., fluorescence slope over thirty minutes; FIG. 5.

The subject of assay [3] is normal human epidermal keratinocytes (NHEK). The experiment in a line: Proliferation: KI67 staining of NHEKs. The format is cell-based. The settings on record: proxylane 0.005%, 0.017%, 0.05%; niacinamide 0.0012%, 0.004%, 0.012%; alone or in combination; FIG. 3.
From the text: Surgical skin samples were taken from adults and subjected to the 0.25% trypsin dermis/epidermis separation method described in Rheinwald to obtain suspensions of normal human epidermal keratinocytes (NHEK) and dermal fibroblasts. […] The NHEK cell cultures were initiated using the 3T3 feeder-layer technique described in Rheinwald J. G., Green H.: Epidermal growth factor and the multiplication of cultured human epidermal keratinocytes.
Keratinocytes were stained against KI67 and expression was quantified.

Regarding `NC(=O)c1cccnc1` [vitamin B3, niacinamide], the “melanin production (average cellular melanin content normalized to total protein)” value in assay [1] is reported as “significantly decreases”. Also, the elastase activity result in assay [2] is given as “inhibit”. For the same molecule, the “cell proliferation of keratinocytes (KI67 expression)” value in assay [3] is recorded as “capable of stimulating”.

The values above are taken from patent US20250134792A1, “COMPOSITIONS AND METHODS FOR TREATING SKIN” (L'Oreal, priority 2023, published 2025).
